According to ChEMBL document CHEMBL1201862, “PubChem BioAssay data set” (2004):
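Tested at 5 concentrations; 48 h exposure; 96-well plates; endpoints linearly interpolated, else capped at highest concentration. GI50 = concentration required for 50% inhibition of growth.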 Active and inactive are the calls of the source. Rule as the data show it: active = GI50 up to about 1.1 µM and inactive = higher.

How the values were obtained:
Experiment in all cases: inhibition of tumour cell growth, NCI panel, 48 h
[1] = system: IGROV-1
[2] = system: CAKI-1
[3] = system: HCC 2998
[4] = system: SK-OV-3
[5] = system: LOX IMVI
[6] = system: RXF 393
[7] = system: SW-620
[8] = system: RPMI-8226
[9] = system: SK-MEL-28
[10] = system: MOLT-4
[11] = system: UACC-257
[12] = system: U-251
[13] = system: UACC-62
[14] = system: SF-295
[15] = system: PC-3
[16] = system: MCF7
[17] = system: T47D

Measured: GI50

CC(C)(C)/N=C1/CC(C)(C)c2ccccc2/C(=N\c2ccccc2)S1
inactive: [1] 48.3 µM | [2] 40.2 µM | [3] 35.2 µM | [4] 57 µM | [5] 18.6 µM | [6] 21.4 µM | [7] 44 µM | [8] 11.2 µM | [9] 37.4 µM | [10] 14.8 µM | [11] 30 µM | [12] 30.6 µM | [13] 27 µM | [14] 32.4 µM

S=P(N1CCCC1)(N1CC1)N1CC1
inactive: [1] > 100 µM | [2] 49.4 µM | [3] > 100 µM | [4] > 100 µM | [5] > 100 µM | [6] > 100 µM | [7] > 100 µM | [8] > 100 µM | [9] > 100 µM | [10] 71.4 µM | [11] > 100 µM | [12] > 100 µM | [13] > 100 µM | [14] > 100 µM

O=C(CC(=O)n1nc(-c2ccccc2)c(/N=N/c2ccccc2Cl)c1-c1ccccc1)Nc1ccc(Cl)cc1
inactive: [1] > 100 µM | [2] > 100 µM | [3] > 100 µM | [4] > 100 µM | [5] > 44.4 µM | [6] > 100 µM | [7] > 48.6 µM | [8] > 49.3 µM | [9] > 100 µM | [10] > 100 µM | [11] > 83.2 µM | [12] > 38.6 µM | [13] > 100 µM | [14] > 100 µM

c1ccc(SCCCC(Sc2ccccc2)Sc2ccccc2)cc1
inactive: [1] > 100 µM | [2] > 100 µM | [3] > 100 µM | [4] > 100 µM | [5] > 100 µM | [6] > 100 µM | [7] > 100 µM | [8] > 100 µM | [9] > 100 µM | [10] > 100 µM | [11] > 100 µM | [12] > 100 µM | [13] > 100 µM | [14] > 100 µM

CC1(C)C[C@@H]2C1CCC1(C)CC2(O)CC[C@H]1O (stereo partly specified)
inactive: [15] > 100 µM | [1] > 100 µM | [2] > 100 µM | [4] > 100 µM | [5] > 100 µM | [16] > 100 µM | [7] > 100 µM | [8] > 100 µM | [9] > 100 µM | [17] > 100 µM | [10] > 100 µM | [11] > 100 µM | [12] > 100 µM | [13] > 100 µM | [14] > 100 µM
